Measured values as given in PubChem BioAssay AID248 (DTP/NCI, 2004).
Several values for one entry are separate records, joined by “and”; a condition that tells them apart may be missing. Equal entries are not always repeated. Toxic doses and inconclusive results are not listed. No stated cut-off is given here; in the data, active means T/C of 150% or more; inactive means T/C below 125%.

System: L1210 leukemia ip in BDF1 mice, survival T/C
Assay: NCI In Vivo Anticancer Drug Screen. Data for tumor model L1210 Leukemia (intraperitoneal) in B6D2F1 (BDF1) mice
Details: higher = longer survival
Outline: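 Mice bearing the transplanted tumor received compound or vehicle. Survival of the treated group was divided by that of the vehicle-treated control group to give the ratio.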

[1] = endpoint: mean survival time, dose: 100.0 mg/kg/injection, schedule: Q01DX001 (ip), vehicle: Klucel (hydroxypropylcellulose) (HPC)
[2] = endpoint: mean survival time, dose: 100.0 mg/kg/injection, schedule: Q04DX003 (ip), vehicle: Klucel (hydroxypropylcellulose) (HPC)
[3] = endpoint: mean survival time, dose: 200.0 mg/kg/injection, schedule: Q01DX001 (ip), vehicle: Klucel (hydroxypropylcellulose) (HPC)
[4] = endpoint: mean survival time, dose: 200.0 mg/kg/injection, schedule: Q04DX003 (ip), vehicle: Klucel (hydroxypropylcellulose) (HPC)
[5] = endpoint: mean survival time, dose: 400.0 mg/kg/injection, schedule: Q01DX001 (ip), vehicle: Klucel (hydroxypropylcellulose) (HPC)
[6] = endpoint: mean survival time, dose: 100.0 mg/kg/injection, schedule: Q01DX001 (ip), vehicle: saline
[7] = endpoint: mean survival time, dose: 200.0 mg/kg/injection, schedule: Q01DX001 (ip), vehicle: saline
[8] = endpoint: mean survival time, dose: 400.0 mg/kg/injection, schedule: Q01DX001 (ip), vehicle: saline

Measured: T/C

C[C@@H](CN1CC(=O)NC(=O)C1)N1CC(=O)NC(=O)C1
inactive: endpoint: mean survival time, dose: 25.0 mg/kg/injection, schedule: Q04DX003 (ip), vehicle: saline 116 % of control | endpoint: mean survival time, dose: 25.0 mg/kg/injection, schedule: Q04DX003 (ip), vehicle: water 111 % of control | endpoint: mean survival time, dose: 32.0 mg/kg/injection, schedule: Q04DX003 (oral), vehicle: saline 117 % of control | endpoint: mean survival time, dose: 50.0 mg/kg/injection, schedule: Q04DX003 (ip), vehicle: saline 116 % of control | endpoint: mean survival time, dose: 50.0 mg/kg/injection, schedule: Q04DX003 (ip), vehicle: water 100 % of control | endpoint: mean survival time, dose: 100.0 mg/kg/injection, schedule: Q04DX003 (ip), vehicle: saline 115 % of control | endpoint: median survival time, dose: 8.0 mg/kg/injection, schedule: Q01DX009 (sc), vehicle: saline 118 % of control | endpoint: median survival time, dose: 16.0 mg/kg/injection, schedule: Q01DX009 (sc), vehicle: saline 119 % of control | endpoint: median survival time, dose: 32.0 mg/kg/injection, schedule: Q03HX024 (ip), vehicle: saline 113 % of control | endpoint: median survival time, dose: 64.0 mg/kg/injection, schedule: Q01DX001 (ip), vehicle: saline 108 % of control | endpoint: median survival time, dose: 64.0 mg/kg/injection, schedule: Q03HX024 (ip), vehicle: saline 94 % of control | endpoint: median survival time, dose: 64.0 mg/kg/injection, schedule: Q04DX003 (ip), vehicle: saline 110 % of control | endpoint: median survival time, dose: 64.0 mg/kg/injection, schedule: Q04DX003 (sc), vehicle: saline 106 % of control | endpoint: median survival time, dose: 64.0 mg/kg/injection, schedule: Q08DX002 (ip), vehicle: saline 104 % of control | endpoint: median survival time, dose: 128.0 mg/kg/injection, schedule: Q01DX001 (ip), vehicle: saline 106 % of control | endpoint: median survival time, dose: 128.0 mg/kg/injection, schedule: Q03HX016 (ip), vehicle: saline 107 % of control | endpoint: median survival time, dose: 128.0 mg/kg/injection, schedule: Q03HX024 (ip), vehicle: saline 86 % of control | endpoint: median survival time, dose: 128.0 mg/kg/injection, schedule: Q04DX003 (ip), vehicle: saline 118 % of control | endpoint: median survival time, dose: 128.0 mg/kg/injection, schedule: Q04DX003 (sc), vehicle: saline 109 % of control | endpoint: median survival time, dose: 256.0 mg/kg/injection, schedule: Q01DX001 (ip), vehicle: saline 109 % of control | endpoint: median survival time, dose: 256.0 mg/kg/injection, schedule: Q04DX003 (ip), vehicle: saline 118 % of control | endpoint: median survival time, dose: 256.0 mg/kg/injection, schedule: Q08DX002 (ip), vehicle: saline 121 % of control | endpoint: median survival time, dose: 512.0 mg/kg/injection, schedule: Q01DX001 (ip), vehicle: saline 111 % of control
active: endpoint: mean survival time, dose: 64.0 mg/kg/injection, schedule: Q04DX003 (oral), vehicle: saline 151 % of control | endpoint: mean survival time, dose: 128.0 mg/kg/injection, schedule: Q04DX003 (oral), vehicle: saline 180 % of control | endpoint: mean survival time, dose: 256.0 mg/kg/injection, schedule: Q04DX003 (oral), vehicle: saline 180 % of control | endpoint: mean survival time, dose: 400.0 mg/kg/injection, schedule: Q04DX003 (ip), vehicle: saline 150 % of control | endpoint: mean survival time, dose: 400.0 mg/kg/injection, schedule: Q04DX003 (ip), vehicle: water 158 % of control | endpoint: mean survival time, dose: 512.0 mg/kg/injection, schedule: Q04DX003 (oral), vehicle: saline 155 % of control | endpoint: mean survival time, dose: 800.0 mg/kg/injection, schedule: Q04DX003 (ip), vehicle: saline 187 % of control | endpoint: median survival time, dose: 8.0 mg/kg/injection, schedule: Q03HX008 (ip), vehicle: saline 152 % of control | endpoint: median survival time, dose: 8.0 mg/kg/injection, schedule: Q03HX016 (ip), vehicle: saline 173 % of control | endpoint: median survival time, dose: 8.0 mg/kg/injection, schedule: Q03HX024 (ip), vehicle: saline 263 % of control | endpoint: median survival time, dose: 16.0 mg/kg/injection, schedule: Q03HX008 (ip), vehicle: saline 152 % of control | endpoint: median survival time, dose: 16.0 mg/kg/injection, schedule: Q03HX016 (ip), vehicle: saline 186 % of control | endpoint: median survival time, dose: 16.0 mg/kg/injection, schedule: Q03HX024 (ip), vehicle: saline 300 % of control | endpoint: median survival time, dose: 32.0 mg/kg/injection, schedule: Q03HX008 (ip), vehicle: saline 155 % of control | endpoint: median survival time, dose: 32.0 mg/kg/injection, schedule: Q03HX016 (ip), vehicle: saline 193 % of control | endpoint: median survival time, dose: 64.0 mg/kg/injection, schedule: Q01DX009 (sc), vehicle: saline 159 % of control | endpoint: median survival time, dose: 64.0 mg/kg/injection, schedule: Q03HX008 (ip), vehicle: saline 158 % of control | endpoint: median survival time, dose: 128.0 mg/kg/injection, schedule: Q03HX008 (ip), vehicle: saline 152 % of control | endpoint: median survival time, dose: 512.0 mg/kg/injection, schedule: Q04DX003 (sc), vehicle: saline 182 % of control | endpoint: median survival time, dose: 1024.0 mg/kg/injection, schedule: Q04DX003 (ip), vehicle: saline 186 % of control | endpoint: median survival time, dose: 1024.0 mg/kg/injection, schedule: Q04DX003 (sc), vehicle: saline 236 % of control | endpoint: median survival time, dose: 1024.0 mg/kg/injection, schedule: Q08DX002 (ip), vehicle: saline 150 % of control

O=C(O)CCNc1ccccc1C(=O)O
inactive: endpoint: mean survival time, dose: 100.0 mg/kg/injection, schedule: Q01DX001 (ip), vehicle: carboxymethylcellulose (CMC) 100 % of control | endpoint: mean survival time, dose: 200.0 mg/kg/injection, schedule: Q01DX001 (ip), vehicle: carboxymethylcellulose (CMC) 96 % of control | endpoint: mean survival time, dose: 400.0 mg/kg/injection, schedule: Q01DX001 (ip), vehicle: carboxymethylcellulose (CMC) 100 % of control

CON=C(c1ccc(N(C)C)cc1)c1ccc(N(C)C)cc1
inactive: [1] 104 % of control | [2] 103 % of control | [3] 101 % of control | [4] 100 % of control | [5] 101 % of control | endpoint: mean survival time, dose: 400.0 mg/kg/injection, schedule: Q04DX003 (ip), vehicle: Klucel (hydroxypropylcellulose) (HPC) 92 % of control

CNC1C(OC2C(OC3C(O)C(O)C(N=C(N)N)C(O)C3N=C(N)N)OC(C)C2(O)C=O)OC(CO)C(O)C1O (stereo unspecified)
inactive: [6] 108 % of control | [7] 106 % of control | [8] 114 % of control

CC1(C)OC2OC(C3COC(=O)O3)C(O)C2O1 (stereo unspecified)
inactive: [1] 114 % of control | [3] 101 % of control | [5] 96 % of control

CC(S)CN1CC1 (stereo unspecified)
inactive: [2] 107 % of control | [4] 105 % of control

CN=C(N)c1ccc(NC(=O)c2ccc(C(=O)Nc3ccc(C(N)=NC)cc3)c(Cl)c2)cc1
active: endpoint: mean survival time, dose: 7.5 mg/kg/injection, schedule: Q01DX Z (ip), vehicle: saline 252 % of control | endpoint: mean survival time, dose: 15.0 mg/kg/injection, schedule: Q01DX Z (ip), vehicle: saline 183 % of control
inactive: endpoint: mean survival time, dose: 1.88 mg/kg/injection, schedule: Q01DX Z (ip), vehicle: saline 117 % of control | endpoint: mean survival time, dose: 60.0 mg/kg/injection, schedule: Q01DX Z (oral), vehicle: saline 105 % of control | endpoint: mean survival time, dose: 62.5 mg/kg/injection, schedule: Q## X010 (oral), vehicle: saline 102 % of control | endpoint: mean survival time, dose: 120.0 mg/kg/injection, schedule: Q01DX Z (oral), vehicle: saline 102 % of control | endpoint: mean survival time, dose: 125.0 mg/kg/injection, schedule: Q## X010 (oral), vehicle: saline 98 % of control | endpoint: mean survival time, dose: 240.0 mg/kg/injection, schedule: Q01DX Z (oral), vehicle: saline 103 % of control | endpoint: mean survival time, dose: 500.0 mg/kg/injection, schedule: Q## X010 (oral), vehicle: saline 102 % of control

Cc1cc(C)c(NC(=O)/C=C/C(=O)O)c(C)c1
inactive: endpoint: mean survival time, dose: 100.0 mg/kg/injection, schedule: Q04DX002 (ip), vehicle: saline with Tween-80 91 % of control and 92 % of control | endpoint: mean survival time, dose: 200.0 mg/kg/injection, schedule: Q04DX002 (ip), vehicle: saline with Tween-80 94 % of control and 99 % of control | endpoint: mean survival time, dose: 800.0 mg/kg/injection, schedule: Q04DX002 (ip), vehicle: saline with Tween-80 103 % of control

O=C(OC(=Nc1ccccc1)N(c1ccccc1)c1ccccc1)c1ccccc1
inactive: [6] 91 % of control | [7] 95 % of control | [8] 94 % of control

Cc1ccc(NC(=O)Nc2ccccc2Cl)cc1
inactive: endpoint: mean survival time, dose: 100.0 mg/kg/injection, schedule: Q01DX009 (ip), vehicle: gum acacia 86 % of control | endpoint: mean survival time, dose: 100.0 mg/kg/injection, schedule: Q04DX003 (ip), vehicle: gum acacia 89 % of control | endpoint: mean survival time, dose: 200.0 mg/kg/injection, schedule: Q01DX009 (ip), vehicle: gum acacia 94 % of control | endpoint: mean survival time, dose: 200.0 mg/kg/injection, schedule: Q04DX003 (ip), vehicle: gum acacia 89 % of control | endpoint: mean survival time, dose: 400.0 mg/kg/injection, schedule: Q01DX009 (ip), vehicle: gum acacia 94 % of control | endpoint: mean survival time, dose: 400.0 mg/kg/injection, schedule: Q04DX003 (ip), vehicle: gum acacia 98 % of control

CCCCCCCC/C=C\CCCCCCCC(=O)OCCCCCCCCCCC
inactive: endpoint: mean survival time, dose: 100.0 mg/kg/injection, schedule: Q01DX009 (ip), vehicle: other 93 % of control | endpoint: mean survival time, dose: 200.0 mg/kg/injection, schedule: Q01DX009 (ip), vehicle: other 94 % of control | endpoint: mean survival time, dose: 400.0 mg/kg/injection, schedule: Q01DX009 (ip), vehicle: other 100 % of control
